The values that follow come from article PMC9971101, “Comparison of Five Near-Infrared Fluorescent Folate Conjugates in an Ovarian Cancer Model” (Molecular Imaging and Biology, 2021).

The nature of data set [1]: Fluorescence spectroscopy (excitation and emission spectra). The class given is physicochemical. The procedure:
The spectral characteristics of the conjugates 1–5 were determined using a Spark 20M plate reader (Tecan, Switzerland). The emission and excitation of all conjugates were measured in triplicates with a bandwidth of 5 nm in a 96-well Half-Area Microplate at a concentration of 100 μM dissolved in phosphate buffered saline (PBS). The fluorescence intensity was plotted as normalised relative fluorescence units (RFU).
Using conjugates 1–5, we evaluated how the conjugation of the different fluorophores to EDAF (Fig. 1a) affected the optical properties. To do so, we defined their individual excitation and emission spectra, and determined the optimal FLI parameters. The different conjugates (Fig. 1b) were diluted in medium or in DMSO and the peak excitation and emission obtained are reported in Table 1, Fig. 1c and Fig. S17.

Data set [2] concerns Skov-3 subcutaneous xenografts. As to the kind of experiment: In vivo biodistribution and optimal time point FLI in subcutaneous Skov-3 xenograft model (IVIS Spectrum). The arrangement: species or system NOD-scid IL2Rg^null mice. The conditions noted are these: for tumour to background ratio (TBR): mean ± SD; for excretion route: mice. As for the experimental part: (§1) All applicable institutional and/or national guidelines for the care and use of animals were followed. All experiments were approved by The Norwegian Animal Research Authority and conducted according to The European Convention for the Protection of Vertebrates Used for Scientific Purposes (Application ID 14128). NOD-scid IL2Rg^null mice (referred to as NSG) were housed in groups of ≤ 5 in individually ventilated cages changed twice per month and kept in a 12-h […] schedule at 21 °C at the Vivarium, University of Bergen. Observations for general condition and body weights were recorded twice per week and, when indicated, the animals were euthanised according to institutional guidelines. Skov-3 and A549 subcutaneous xenografts were established through bi-lateral flank injections of 5 × 10^6 cells, resuspended in 100 μL PBS containing 16.7% Matrigel (Corning Inc., MA, USA). Tumour volumes were measured weekly with a digital calliper and calculated using the ellipsoid volume formula: Volume = π (length × width × height)/6.
For biodistribution assessment of conjugates 1–5, mice were intravenously (iv) injected with 100 μL of a 10-μM conjugate solution when mean tumour volumes reached ≈150 mm^3, corresponding to a dose of […]. The dose was chosen on the basis of preclinical mouse models previously performed using folate-NIR (OTL38) FLI [28]. To determine the timepoint for the optimal TBR, optical imaging was performed at 0 h, 0.5 h, 1 h, 2 h, 4 h, 6 h, 8 h, 24 h and 48 h using the IVIS Spectrum. Fluorescence signals were analysed with the Living Imaging® software v4.5 (PerkinElmer Inc.) and expressed as average radiance (p/s/cm^2/sr). Regions of interest (ROI) were manually drawn around the subcutaneous tumours in the flanks and the adjacent tissue to calculate TBRs at all time points. Next, subcutaneous xenograft models were imaged at the pre-determined optimal time points, which were 4 h for conjugates 1, 2 and 3 and 24 h for conjugates 4 and 5.

The subject of data set [3] is Skov-3 and A549 subcutaneous xenografts. As to the kind of experiment: Ex vivo tumour and organ biodistribution (IVIS Spectrum and FLARE intraoperative system). The conditions noted are these: for ex vivo fluorescence signal in tumours (FLARE): Skov-3 tumour; for ex vivo fluorescence in the kidneys (FLARE): exposure time 1000 ms. The class given is in vivo, NOD-scid IL2Rg^null mice. As for the experimental part:
as §1
Organ biodistribution was assessed ex vivo for each conjugate in Skov-3 and in the control cell line, A549. Four hours after iv administration of 1, 2 and 3 and 24 h after injection of 4 and 5 (100 μl, 10 μM), mice were euthanised and tumours and organs were harvested. FLI was performed with the IVIS Spectrum, and subsequently, fluorescence was acquired using the FLARE® intraoperative system (Curadel LLC), employing the NIR channel #2 (λex = 760 ± 3 nm and λem = > 781 nm longpass) at three different exposure times (500, 1000 and 2000 ms) at a gain of 1. IVIS Spectrum data were analysed as previously described, and FLARE data were analysed using ImageJ (Fiji, version 1.52p, [29]) and the integrated FLARE analysis platform using grey scale values expressed in arbitrary units (AU).

Data set [4] shares this test system. The data set can be described thus: In vivo FLI at optimal time points, Skov-3 versus A549 xenografts (target specificity). The arrangement: species or system NOD-scid IL2Rg^null mice. The settings on record: 4 h after iv injection, p < 0.05. The procedure:
as §1, with “Skov-3 and A549 subcutaneous xenografts were established through bi-lateral flank injections of 5 × 10^6 cells, resuspended in 100 μL PBS containing 16.7% Matrigel (Corning Inc., MA, USA).” left out
For biodistribution assessment of conjugates 1–5, mice were intravenously (iv) injected with 100 μL of a 10-μM conjugate solution when mean tumour volumes reached ≈150 mm^3, corresponding to a dose of 500 nmol/mouse. […] Fluorescence signals were analysed with the Living Imaging® software v4.5 (PerkinElmer Inc.) and expressed as average radiance (p/s/cm^2/sr). […] Next, subcutaneous xenograft models were imaged at the pre-determined optimal time points, which were 4 h for conjugates 1, 2 and 3 and 24 h for conjugates 4 and 5.

Where [5] appears, read: 4 h after iv injection, Skov-3 subcutaneous xenograft.
Setting [6] is: 8 h after iv injection, Skov-3 subcutaneous xenograft.
Where [7] appears, read: 4 h after iv injection, exposure time 2000 ms.
[8] abbreviates: 24 h after iv injection, Skov-3 subcutaneous xenograft.
Where [9] appears, read: 24 h after iv injection, exposure time 2000 ms.
Setting [10] is: Skov-3 xenografted mice, 24 h after iv injection.

As to `CC1(C)C(/C=C/C2=C(Oc3ccc(CCC(=O)NCCNC(=O)CC[C@H](NC(=O)c4ccc(NCc5cnc6nc(N)[nH]c(=O)c6n5)cc4)C(=O)O)cc3)C(=C/C=C3/N(CCC[N+](C)(C)C)c4ccc(S(=O)(=O)O)cc4C3(C)C)/CCC2)=[N+](CCC[N+](C)(C)C)c2ccc(S(=O)(=O)O)cc21` [Conjugate 1, 2-((E)-2-((E)-2-(4-(3-((2-((S)-4-(4-(((2-amino-4-oxo-3,4-dihydropteridin-6-yl)methyl)amino)benzamido)-4-carboxybutanamido)ethyl)amino)-3-oxopropyl)phenoxy)-3-(2-((E)-3,3-dimethyl-5-sulfonato-1-(3-(trimethylammonio)propyl)indolin-2-ylidene)ethylidene)cyclohex-1-en-1-yl)vinyl)-3,3-dimethyl-1-(3-(trimethylammonio)propyl)-3H-indol-1-ium-5-sulfonate], in data set [1] (DMSO), the Stokes shift came to 24 nm, the λem came out at 816 nm and the λex was 792 nm. Further, in data set [1] (culture medium), the Stokes shift was 25 nm, the λem is 802 nm and the λex stood at 777 nm. In addition, the “tumour to background ratio (TBR)” value in data set [2] (setting [5]) came out at 1.9 ± 0.3. For the same compound, the “tumour to background ratio (TBR)” value in data set [2] (setting [6]) is listed as 2.0 ± 0.4. Further, the “residual fluorescence in healthy organs in vivo” value in data set [2] (24 h after iv injection) is “residual fluorescence signal in the kidneys”. In data set [2] (iv injection), the excretion route result was “renally cleared”. Besides, the “ex vivo fluorescence signal in tumours (FLARE)” value (from here on “ex vivo fluorescence signal”) in data set [3] (setting [7]) amounted to 156.9 ± 22.0 AU.

Take `CC1(C)C(/C=C/C2=C(c3ccc(CCC(=O)NCCNC(=O)CC[C@H](NC(=O)c4ccc(NCc5cnc6nc(N)[nH]c(=O)c6n5)cc4)C(=O)O)cc3)C(=C/C=C3/N(CCC[N+](C)(C)C)c4ccc(S(=O)(=O)O)cc4C3(C)C)/CCC2)=[N+](CCC[N+](C)(C)C)c2ccc(S(=O)(=O)O)cc21` [Conjugate 2, 2-((E)-2-((E)-4'-(3-((2-((S)-4-(4-(((2-amino-4-oxo-3,4-dihydropteridin-6-yl)methyl)amino)benzamido)-4-carboxybutanamido)ethyl)amino)-3-oxopropyl)-6-(2-((E)-3,3-dimethyl-5-sulfonato-1-(3-(trimethylammonio)propyl)indolin-2-ylidene)ethylidene)-3,4,5,6-tetrahydro-[1,1'-biphenyl]-2-yl)vinyl)-3,3-dimethyl-1-(3-(trimethylammonio)propyl)-3H-indol-1-ium-5-sulfonate]: in data set [1] (DMSO), the Stokes shift amounted to 28 nm, the λem stood at 802 nm and the λex is listed as 774 nm. Further, in data set [1] (culture medium), the Stokes shift stood at 28 nm, the λem worked out at 788 nm and the λex is 760 nm. The “tumour to background ratio (TBR)” value in data set [2] (setting [5]) is listed as 1.8 ± 0.2. Also, in data set [2] (setting [6]), the “tumour to background ratio (TBR)” value is recorded as 2.0 ± 0.2. For the same compound, in data set [2] (after iv injection, last imaging time point 48 h), the “time that the fluorescence signal in Skov-3 tumours was sustained” value was “up to 48 h”. Moreover, the excretion route entry in data set [2] (iv injection) is recorded as “renally cleared”. For the same compound, the “ex vivo fluorescence signal” value in data set [3] (setting [7]) came to 213.1 ± 51.0 AU. Moreover, the “difference in average radiance between Skov-3 and A549 tumours” value in data set [4] was “significant difference”.

Regarding `CC1(C)C(/C=C/C2=C(Oc3ccc(S(=O)(=O)O)cc3)C(=C/C=C3/N(CCCCS(=O)(=O)O)c4ccc(S(=O)(=O)[O-])cc4C3(C)C)/CCC2)=[N+](CCCCCC(=O)NCCNC(=O)CC[C@H](NC(=O)c2ccc(NCc3cnc4nc(N)[nH]c(=O)c4n3)cc2)C(=O)O)c2ccc(S(=O)(=O)O)cc21` [Conjugate 3, 1-(6-((2-((S)-4-(4-(((2-amino-4-oxo-3,4-dihydropteridin-6-yl)methyl)amino)benzamido)-4-carboxybutanamido)ethyl)amino)-6-oxohexyl)-2-((E)-2-((E)-3-(2-((E)-3,3-dimethyl-5-sulfonato-1-(4-sulfonatobutyl)indolin-2-ylidene)ethylidene)-2-(4-sulfonatophenoxy)cyclohex-1-en-1-yl)vinyl)-3,3-dimethyl-3H-indol-1-ium-5-sulfonate], in data set [1] (DMSO), the Stokes shift is 28 nm, the λem is recorded as 826 nm and the λex was 798 nm. In data set [1] (culture medium), the Stokes shift amounted to 25 nm, the λem is 808 nm and the λex is on record as 783 nm. For the same compound, in data set [2] (setting [5]), the “tumour to background ratio (TBR)” value turned out to be 1.2 ± 0.2. In addition, the “tumour to background ratio (TBR)” value in data set [2] (setting [6]) is 1.4 ± 0.3. In data set [2] (24 h after iv injection), the “residual fluorescence in healthy organs in vivo” value is on record as “residual fluorescence signal in the kidneys”. The excretion route result in data set [2] (iv injection) is reported as “renally cleared”. The “ex vivo fluorescence signal” value in data set [3] (setting [7]) is 189.7 ± 27.1 AU. Further, the “ex vivo fluorescence in the kidneys (FLARE)” value in data set [3] (Skov-3 xenografted mice, 4 h after iv injection) was determined as 913.6 ± 248.9 AU.

Take `CC1(C)C(/C=C/C=C/C=C/C=C2\N(CCCCCC(=O)NCCNC(=O)CC[C@H](NC(=O)c3ccc(NCc4cnc5nc(N)[nH]c(=O)c5n4)cc3)C(=O)O)c3ccc4ccccc4c3C2(C)C)=[N+](CCCCS(=O)(=O)[O-])c2ccc3ccccc3c21` [Conjugate 4, 4-(2-((1E,3E,5E,7Z)-7-(3-(6-((2-((S)-4-(4-(((2-amino-4-oxo-3,4-dihydropteridin-6-yl)methyl)amino)benzamido)-4-carboxybutanamido)ethyl)amino)-6-oxohexyl)-1,1-dimethyl-1,3-dihydro-2H-benzo[e]indol-2-ylidene)hepta-1,3,5-trien-1-yl)-1,1-dimethyl-1H-benzo[e]indol-3-ium-3-yl)butane-1-sulfonate]: in data set [1] (DMSO), the Stokes shift was found to be 42 nm, the λem is given as 832 nm and the λex is listed as 790 nm. Further, in data set [1] (culture medium), the Stokes shift is listed as 36 nm, the λem is listed as 820 nm and the λex amounted to 784 nm. Besides, the “tumour to background ratio (TBR)” value in data set [2] (0.5 h after iv injection, Skov-3 subcutaneous xenograft) is 1.3 ± 0.3. The “tumour to background ratio (TBR)” value in data set [2] (setting [8]) was found to be 1.0 ± 0.1. The accumulation in tumours entry in data set [2] (Skov-3 subcutaneous xenograft, iv injection) is “no accumulation in tumours”. Also, the excretion route entry in data set [2] (iv injection) is listed as “hepatobiliary excretion”. For the same compound, in data set [3] (24 h after iv injection), the “ex vivo organ accumulation (IVIS Spectrum)” value is given as “mainly in the liver”. The “ex vivo fluorescence signal” value in data set [3] (setting [9]) came to 56.4 ± 4.1 AU. Besides, the “ex vivo fluorescence in the kidneys (FLARE)” value in data set [3] (setting [10]) is recorded as 100.4 ± 37.8 AU. Moreover, the “ex vivo fluorescence intensity in the liver (FLARE)” value in data set [3] (Skov-3 xenografted mice, 24 h after iv injection, exposure time 2000 ms) turned out to be 283.3 ± 38.7 AU.

`C[N+]1=C(/C=C/C2=C(Cl)C(=C/C=C3/N(CCCCCC(=O)NCCNC(=O)CC[C@H](NC(=O)c4ccc(NCc5cnc6nc(N)[nH]c(=O)c6n5)cc4)C(=O)O)c4ccccc4C3(C)C)/CCC2)C(C)(C)c2ccccc21` [Conjugate 5, 2-((E)-2-((E)-3-(2-((E)-1-(6-((2-((S)-4-(4-(((2-amino-4-oxo-3,4-dihydropteridin-6-yl)methyl)amino)benzamido)-4-carboxybutanamido)ethyl)amino)-6-oxohexyl)-3,3-dimethylindolin-2-ylidene)ethylidene)-2-chlorocyclohex-1-en-1-yl)vinyl)-1,3,3-trimethyl-3H-indol-1-ium]: in data set [1] (DMSO), the Stokes shift came to 24 nm, the λem stood at 820 nm and the λex is 796 nm. Further, in data set [1] (culture medium), the Stokes shift is reported as 15 nm, the λem is recorded as 804 nm and the λex was determined as 789 nm. Also, the “tumour to background ratio (TBR)” value in data set [2] (setting [8]) is 2.1 ± 0.6. Also, in data set [2] (iv injection), the excretion route result is recorded as “hepatobiliary excretion”. Besides, the “time at which tumour fluorescence became evident” value in data set [2] (post-injection, Skov-3 subcutaneous xenograft) came to 4 h. Moreover, the “ex vivo organ accumulation (IVIS Spectrum)” value in data set [3] (24 h after iv injection) is recorded as “in the stomach”. Besides, the “ex vivo fluorescence signal” value in data set [3] (setting [9]) is 60.9 ± 6.3 AU. The “ex vivo fluorescence in the kidneys (FLARE)” value in data set [3] (setting [10]) was 63.9 ± 11.3 AU.
